pIC50: −log10 of the molar value. Blank lines part the entries; values can stand above or below the compound they belong to.
Assays:
CYP3A4 = CYP3A4 (Homo sapiens, UniProt P08684); assay: CYP3A4 fluorescent MBI test; assay type: in vitro ADME; set-up: host or cells: E. coli; conditions: E. coli-expressing CYP3A4, substrate 7-BFC, pre-reaction 0 or 30 minutes
Experimental: The CYP3A4 fluorescent MBI test is a test to examine enhancement of CYP3A4 inhibition by metabolic reaction of the compound. Here, E. coli-expressing CYP3A4 was used as an enzyme, and a reaction wherein 7-benzyloxy trifluoromethylcumarin (BFC) was debenzylated by the CYP3A4 enzyme into a fluorescent metabolite 7-hydroxytrifluoromethylcumarin (HFC) was employed as an indicator reaction.
The reaction conditions are as follows.
Substrate: […] 7-BFC; Pre-reaction time: 0 or 30 minutes; Reaction time: 15 minutes; Reaction temperature: 25° C. […]
The enzyme and a test compound solution are added to a K-Pi buffer (pH 7.4) in the aforementioned amounts for the pre-reaction so that a pre-reaction solution is prepared, and this solution is put into a 96-well plate. […] With respect to each of the plates on which the indicator reaction is performed, the fluorescence value of the metabolite 7-HFC is measured with a fluorescence plate reader (Ex=420 nm, Em=535 nm).
Control (100%) is prepared by adding only DMSO, a solvent to dissolve the test compound, to the reaction system. The remaining activity (%) at each concentration after adding the test compound solution is calculated, and the IC50 value is calculated from the concentration and inhibition percentage by inverse estimation with the logistic model. […]

Aβ42 production = assay: Suppressive activity of Aβ42 production in neuroblast expressing human APP695 (ELISA of secreted Aβ42); assay type: cell-based; conditions: secreted Aβ42, SH-SY5Y-APPwt cells, 24 hours
Experimental: Dose dependent effect of each test compound was evaluated by measurement of secreted Aβ42 and cell viability in SH-SY5Y-APPwt cells. Secreted Aβ42 was quantified by an ELISA assay and cell viability was measured using a cell count reagent.
SH-SY5Y-APPwt cells were generated from human SH-SY5Y neuroblast by transfection of human APP695 DNA as a stable cell-line and cultured in DMEM supplemented with 10% FCS.
SH-SY5Y-APPwt cells were plated at 1.2×10^5 cells/well/150 μl in 96-well plates. A solution of the test compound in DMSO was diluted with DMEM to a concentration 4-fold higher than the final concentration. 50 μl of the diluted solution was sufficiently mixed with the cells and the final DMEM solution was 200 μl/well. The final DMSO concentration was 1%. As a control compound, a γ-secretase inhibitor, DAPT (Calbiochem) was used. 24 hours after, the culture supernatant was collected and appropriately diluted for ELISA quantification of Aβ42. Cells were used for cell viability assay.
Human/Rat β Amyloid(42) ELISA Kit WAKO (WAKO Pure Chemical Industries) was used for ELISA. ELISA was carried out according to the protocols recommended by the manufacturer's instructions. The results were shown as percentage to the Aβ concentration in the medium of control group (% of Control) and then IC50 values of each test compounds were calculated. Cell viability was measured using Cell Count Reagent SF (NACALAI TESQUE) according to the protocols recommended by the manufacturer's instructions. The results were shown as percentage to cell viability of control group (% of Control) and reduction of cell viability was not seen.

hERG channel (IKr) = target: T1, hERG channel (IKr) (Homo sapiens, UniProt Q12809); assay: hERG test (whole-cell patch clamp, IKr); assay type: cell-based; conditions: HEK293 cells that express hERG, pH 7.4, HEK293 cell expressing hERG, room temperature, concentration not given, read-out: inhibitory percentage relative to the maximum tail current (IKr)
T1 construct: expressed in transfected cells; host or cells: HEK293
T1 sequence (Q12809 whole entry): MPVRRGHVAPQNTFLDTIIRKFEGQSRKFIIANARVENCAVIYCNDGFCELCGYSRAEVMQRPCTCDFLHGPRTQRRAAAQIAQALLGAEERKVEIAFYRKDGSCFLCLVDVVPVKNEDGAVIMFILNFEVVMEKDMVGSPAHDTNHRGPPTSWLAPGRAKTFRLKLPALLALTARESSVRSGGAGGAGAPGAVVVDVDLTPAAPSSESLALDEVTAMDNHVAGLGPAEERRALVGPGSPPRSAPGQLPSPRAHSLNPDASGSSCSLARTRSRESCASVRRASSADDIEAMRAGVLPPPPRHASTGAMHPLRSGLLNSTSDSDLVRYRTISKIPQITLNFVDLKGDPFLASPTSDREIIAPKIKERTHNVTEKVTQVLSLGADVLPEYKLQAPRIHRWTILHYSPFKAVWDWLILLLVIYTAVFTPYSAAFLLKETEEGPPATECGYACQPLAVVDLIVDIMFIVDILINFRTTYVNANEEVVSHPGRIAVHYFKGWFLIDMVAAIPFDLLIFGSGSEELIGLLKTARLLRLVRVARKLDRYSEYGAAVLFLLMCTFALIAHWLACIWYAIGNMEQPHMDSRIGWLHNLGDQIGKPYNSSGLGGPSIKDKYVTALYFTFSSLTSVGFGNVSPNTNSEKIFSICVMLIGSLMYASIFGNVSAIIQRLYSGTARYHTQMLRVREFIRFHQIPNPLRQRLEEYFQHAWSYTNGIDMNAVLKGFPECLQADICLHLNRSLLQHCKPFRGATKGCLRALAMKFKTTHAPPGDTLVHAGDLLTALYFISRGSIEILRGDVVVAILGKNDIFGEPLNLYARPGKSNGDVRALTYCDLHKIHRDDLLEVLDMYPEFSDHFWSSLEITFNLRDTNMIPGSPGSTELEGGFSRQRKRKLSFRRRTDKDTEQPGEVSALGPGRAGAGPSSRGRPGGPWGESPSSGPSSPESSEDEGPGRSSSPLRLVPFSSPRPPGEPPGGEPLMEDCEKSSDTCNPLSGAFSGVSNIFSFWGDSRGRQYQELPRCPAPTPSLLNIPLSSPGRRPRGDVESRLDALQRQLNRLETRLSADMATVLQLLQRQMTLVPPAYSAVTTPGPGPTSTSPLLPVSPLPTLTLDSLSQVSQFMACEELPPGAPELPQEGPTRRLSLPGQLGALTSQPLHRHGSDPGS
Source text: For the purpose of risk assessment for QT prolongation on an electrocardiogram, the action on delayed rectifier K+ current (IKr) which plays an important role on a process of ventricular repolarization is studied using a HEK293 cell with a human ether-a-go-go related gene (hERG) channel expressed therein.
A cell is maintained at a membrane potential of −80 mV, and then +50 mV of a depolarizing stimulus is applied to the cell for 2 seconds and further −50 mV of a repolarizing stimulus is applied thereto for 2 seconds by a whole-cell patch clamp technique with a fully-automatic patch clamp system (PatchXpress 7000A, Axon Instruments Inc.), and the induced IKr is recorded. As the current generated is stabilized, an extracellular fluid with the test compound dissolved therein at a target concentration (NaCl: 137 mmol/L, KCl: 4 mmol/L, CaCl2.2H2O: 1.8 mmol/L, MgCl2.6H2O: 1 mmol/L, glucose: 10 mmol/L, HEPES (4-(2-hydroxyethyl)-1-piperazineethanesulfonic acid): 10 mmol/L, pH=7.4) is applied to the cell for 10 minutes under room temperature conditions. The absolute value of the maximum tail current is determined from the obtained IKr with an analysis software (DataXpress ver. 1, Molecular Devices Corporation) based on a current value at a maintained membrane potential. Further, an inhibitory percentage relative to the maximum tail current before application of the test compound is calculated, and influence of the test compound on IKr is evaluated in comparison with the medium application group (0.1% dimethyl sulfoxide solution).

Solubility test = assay type: physicochemical; conditions: kinetic from dmso stock; 1% DMSO, artificial intestinal juice pH 6.8, 16 hours at 25° C.
Experimental: The solubility of each compound is determined under 1% DMSO addition conditions. A 10 mM solution of the compound is prepared with DMSO, and 6 μL of the compound solution is added to 594 μL of an artificial intestinal juice (water and 118 mL of 0.2 mol/L NaOH reagent are added to 250 mL of 0.2 mol/L potassium dihydrogen phosphate reagent to reach 1000 mL) with a pH of 6.8. The mixture is left standing for 16 hours at 25° C., and the mixture is vacuum-filtered. The filtrate is two-fold diluted with methanol/water=1/1, and the compound concentration in the filtrate is measured with HPLC or LC/MS/MS by the absolute calibration method.

Metabolic stability test = assay type: in vitro ADME; conditions: human liver microsomes 0.5 mg protein/mL, 1 mmol/L NADPH, 30 minutes at 37° C.
Experimental: The test compound is reacted with commercially available pooled human liver microsomes for a predetermined time period. The residual rate is calculated by comparing the reacted sample and unreacted sample, and thus the degree of metabolism in liver is evaluated. In 0.2 mL of a buffer (50 mmol/L tris-HCl pH 7.4, 150 mmol/L potassium chloride, 10 mmol/L magnesium chloride) containing human liver microsomes 0.5 mg protein/mL, reaction is carried out in the presence of 1 mmol/L NADPH for 0 minute or 30 minutes at 37° C. (oxidative reaction). After the reaction, 50 μL of the reaction solution is added to and mixed with 100 μl of a solution of methanol/acetonitrile=1/1 (v/v), and the mixture is centrifuged for 15 minutes at 3000 rpm. The test compound in the centrifuged supernatant is quantified by LC/MS/MS, and the residual amount of the test compound after the reaction is calculated based on the compound amount at O-minute reaction set as 100%.

γ-secretase = assay: Inhibition of γ-secretase activity: CTFβ ELISA in SH-SY5Y-APPwt cells; assay type: cell-based, human; conditions: concentration 1-fold and 10-fold higher than IC50 for Aβ42 inhibition, 24 hours
Experimental: Inhibition of γ-secretase activity of the test compounds were evaluated by assessment of APP processing by γ-secretase, i.e., by measurement of a γ-secretase substrate C-terminal fragment β (CTFβ) in SH-SY5Y-APPwt cells. Cells were treated in test compound concentration 1-fold and 10-fold higher than its IC50 value for Aβ42 inhibition. CTFβ accumulated by inhibition of γ-secretase activity was quantified by an ELISA assay. SH-SY5Y-APPwt cells were generated from human SH-SY5Y neuroblast by transfection of human APP695 DNA as a stable cell-line and cultured in DMEM supplemented with 10% FCS. SHSY5Y-APPwt cells were plated at 1.0×10^6 cells/well/1 ml DMEM in 6-well plates. A solution of the test compound in DMSO was diluted with DMEM to a concentration 2-fold higher than the final concentration. 1 ml of the diluted solution was sufficiently mixed with the cell and the final DMEM solution was 2 mL/well. The final DMSO concentration was 1%. As a control compound, a γ-secretase inhibitor, DAPT (Calbiochem) was used. […] Protein concentrations in the supernatants were measured by Protein assay Kit (Pierce). The supernatants were diluted and used for CTFβ quantification by βCTF ELISA Kit (IBL) The results were shown as percentage to the CTFβ concentration of control group (added only DMSO) (% of Control), and increasing and decreasing CTFβ of the test compound was calculated. […]

CYP3A4, sequence (P08684 whole entry): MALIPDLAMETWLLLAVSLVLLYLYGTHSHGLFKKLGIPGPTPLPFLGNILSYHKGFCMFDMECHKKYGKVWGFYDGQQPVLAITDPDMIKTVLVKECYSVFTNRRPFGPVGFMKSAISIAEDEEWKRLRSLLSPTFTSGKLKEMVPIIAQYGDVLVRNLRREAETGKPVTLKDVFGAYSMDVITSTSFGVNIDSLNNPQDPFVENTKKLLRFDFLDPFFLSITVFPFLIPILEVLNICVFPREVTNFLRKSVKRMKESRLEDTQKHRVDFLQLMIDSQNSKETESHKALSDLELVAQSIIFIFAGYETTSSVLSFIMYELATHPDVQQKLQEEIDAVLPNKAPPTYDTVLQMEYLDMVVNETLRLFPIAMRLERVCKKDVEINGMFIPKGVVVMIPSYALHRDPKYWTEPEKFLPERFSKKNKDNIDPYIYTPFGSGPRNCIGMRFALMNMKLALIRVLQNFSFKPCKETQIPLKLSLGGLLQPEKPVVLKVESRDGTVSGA

Compound: COc1cc(NS(=O)(=O)Cc2cccc(Cl)c2)ccc1-n1cnc(C)c1 [Compound 38]
pIC50 (Aβ42 production): 5.18

Compound: COc1cc(NS(=O)(=O)c2ccccc2F)ccc1-n1cnc(C)c1 [Compound 69]
inhibition at 10 min (hERG channel (IKr)): 6.4%

Compound: COc1cc(NS(=O)(=O)c2ccccc2-c2csc3ccccc23)ccc1-n1cnc(C)c1 [Compound 111]
CYP3A4 MBI: difference of the IC50 values (CYP3A4): (−) (when the difference is 3 μM or lower, it is regarded as (−))

Compound: COc1cc(N2Cc3ccc(-c4ccccc4Cl)cc3C2=O)ccc1-n1cnc(C)c1 [Compound 189]
pIC50 (Aβ42 production): 5.80

Compound: COc1cc(N2CCC(NC(=O)c3cccc(Cl)c3)C2=O)ccc1-n1cnc(C)c1 (centres unmarked) [Compound 201]
pIC50 (Aβ42 production): 6.10

Compound: COc1cc(N2CCC(NCc3ccc(Cl)cc3)C2=O)ccc1-n1cnc(C)c1 (centres unmarked) [Compound 231]
pIC50 (Aβ42 production): 5.74

Compound: COc1cc(N2CCC(C(c3ccccc3)c3ccccc3)C2=O)ccc1-n1cnc(C)c1 (centres unmarked) [Compound 259]
pIC50 (Aβ42 production): 6.15

Compound: COc1cc(NC(=O)Cc2ccc(Cl)c(Cl)c2)ccc1-n1cnc(C)c1 [Compound E8]
pIC50 (Aβ42 production): 5.96

Compound: C[C@H](NC(=O)Cc1cc(F)cc(F)c1)C(=O)N[C@H](C(=O)OC(C)(C)C)c1ccccc1 [DAPT]
change of CTFβ (γ-secretase): dose-dependently increased CTFβ

Now from value to compound, other results behind:

pIC50 (Aβ42 production): 6.05
Compound: COc1cc(NS(=O)(=O)c2ccc(Cl)c(Cl)c2)ccc1-n1cnc(C)c1 [Compound 1]
CYP3A4 MBI: difference of the IC50 values (CYP3A4): (−) (when the difference is 3 μM or lower, it is regarded as (−))

solubility at 16 h (Solubility test): > 50 µM
Compound: COc1cc(NS(=O)(=O)c2ccccc2[N+](=O)[O-])ccc1-n1cnc(C)c1 [Compound 74]
inhibition at 10 min (hERG channel (IKr)): 1.1%

residual amount of the test compound after the reaction (Metabolic stability test): 97.0%
Compound: COc1cc(NS(=O)(=O)c2ccc(Cl)nc2)ccc1-n1cnc(C)c1 [Compound 113]
inhibition at 10 min (hERG channel (IKr)): 8.5%

residual amount of the test compound after the reaction (Metabolic stability test): 97.8%
Compound: COc1cc(NS(=O)(=O)c2cccnc2Cl)ccc1-n1cnc(C)c1 [Compound 115]

solubility at 16 h (Solubility test): > 50 µM
Compound: COc1cc(NS(=O)(=O)c2ccccc2-c2ccncc2)ccc1-n1cnc(C)c1 [Compound 178]

Source: patent publication US20120135997A1, “PHARMACEUTICAL COMPOSITION COMPRISING A LACTAM OR BENZENESULFONAMIDE COMPOUND” (Shionogi & Co., Ltd., priority 2009, published 2012)
